68 compounds from PubChem BioAssay AID179 (DTP/NCI, 2004) can be followed below.

This assay has as its system CEM cells HIV-1 protection, formazan growth assay. The experiment in a line: NCI AIDS Antiviral Assay. The note with it: for IC50: measured here: growth of uninfected CEM cells. In short, it runs like this:
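Protection of CEM cells against HIV-1 was scored from cell growth (soluble formazan) across five concentrations, with parallel uninfected cells. Lack of protection may reflect toxicity.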

SMILES strings stand for the structures. Active and inactive are the calls of the source.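 Rule for the calls: active = compounds giving half or more protection of infected cells from virus-caused growth loss, again on retest; inactive = the rest.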

Regarding `Nc1nc(Cl)cc(NCC2(CO)CC(CCCc3ccccc3)C2)n1` (configuration not stated), the EC50 was > 20 µM and the IC50 came to 0.0603 µM.

With `CCN(CC)CCCCCCCNc1c2ccc(Cl)cc2nc2ccc(OC)cc12`, the EC50 is > 2 µM and the IC50 worked out at 0.427 µM.

With `COc1ccc2c(O)c(S(=O)(=O)c3ccc(Cl)cc3)c(=O)oc2c1`, the EC50 is > 200 µM and the IC50 amounted to 129 µM. On the same counts, the results for `O=C1CCCCC/C1=C\c1ccccc1` are > 200 µM and 52.5 µM. For `CC(=O)c1cn(-c2ccc(Cl)cc2)c(=O)c2c(N)n[nH]c12`, in that order: 166 µM and > 200 µM.

As for `COc1ccc(C(O)/C(=N/N)c2nc3ccc(Cl)cc3[nH]c2=O)cc1` (configuration not stated), the EC50 is > 263 µM and the IC50 worked out at 251 µM.

Take `CCC(CO)Nc1nc2c(c(=O)n(C)c(=O)n2C)n1CCO` (configuration not stated): the outcome was inactive. As for `Cc1cc(C(C)(C)C)cc(Cc2cc(C(C)(C)C)cc(Cc3cc(C(C)(C)C)cc(C)c3O)c2O)c1O`, the EC50 is > 20 µM and the IC50 was > 20 µM.

Regarding `Cc1cn(C2CC(O)C(COC(=O)CCCCCCCCCCN=[N+]=[N-])O2)c(=O)[nH]c1=O` (configuration not stated), the EC50 is > 123 µM and the IC50 came to 24 µM.

As to `CCOC(=O)/C(C#N)=C/c1ccc(F)cc1`, the EC50 is > 162 µM and the half-inhibitory concentration (IC50) was > 162 µM. In the case of `Cc1nnc(N)nc1/C=C\c1ccc(N(C)C)cc1`, the EC50 was > 200 µM and the concentration for half-maximal inhibition (IC50) stood at 3.47 µM.

Consider `CC(C)CN1CC(=O)N2CCCN2C(=O)C1`, for which the EC50 is > 407 µM and the IC50 is > 407 µM.

In the case of `Oc1ccc([S+](c2ccc(O)cc2)c2ccc(O)cc2)cc1`, the EC50 is > 145 µM and the IC50 is > 145 µM. On to `COc1ccc(NC(=O)CC(=O)N/N=C(/C)c2cc3cc(N=Nc4ccccc4Cl)ccc3oc2=O)cc1`, for which the EC50 was > 9.77 µM and the IC50 is > 9.77 µM. Consider `CN(C)c1nc(N(C)C)sc(=O)n1`, for which the result was inactive. Regarding `c1ccc2c(c1)cc1c3[nH]c4ccccc4c3ccn21`, the EC50 was > 200 µM and the IC50 was found to be 6.76 µM. For `COc1ncc(C#CC(=O)c2ccccc2)c(OC)n1`, in that order: > 2 µM and 0.331 µM. For `Cc1ccccc1NC(=O)C1C(=O)N(c2ccccc2C)C(=O)/C1=N\N` (configuration not stated), the result was inactive. On to `C[CH2][Sn]([CH2]C)([S]CCS(=O)(=O)O)[S]CCS(=O)(=O)O`, for which the EC50 is > 200 µM and the IC50 came out at 3.72 µM. For `CC(C)(C)OC(=O)NCCc1cccc2c1oc1c(CCC(=O)O)cccc12`, the EC50 was > 309 µM and the concentration for half-maximal inhibition (IC50) amounted to 110 µM. Regarding `CCCOC(=O)c1cc(OC(C)=O)c2c(OC)ccc(OC)c2c1`, the EC50 is > 40.7 µM and the IC50 was > 40.7 µM. Regarding `COCCCNC(=O)C1=C(C)NC(C)=C(C(=O)NCCCOC)C1`, the EC50 is > 200 µM and the IC50 worked out at 53.7 µM. On the same counts, the results for `[C-]#[O+].[C-]#[O+].[C-]#[O+].[C-]#[O+].[Cr].c1ccc(P(CCP(CCP(c2ccccc2)c2ccccc2)c2ccccc2)CCP(c2ccccc2)c2ccccc2)cc1` (configuration not stated) are > 1.74 µM and > 1.74 µM. For the compound `COc1cc(-c2nc3sc(-c4ccc(O)c(OC)c4)nc3s2)ccc1O`, the EC50 was 83.2 µM and the IC50 is > 200 µM. Turning to `CCN(C(=O)N[C@@H](Cc1ccccc1)C(=O)N[C@@H](CC(C)C)C(=O)OC)c1ccccc1`, the EC50 was 5.01 µM and the IC50 amounted to 28.8 µM.

Turning to `Cc1ncc([N+](=O)[O-])n1CCNCCCn1ccnc1[N+](=O)[O-]`, the EC50 is > 200 µM and the IC50 is > 200 µM.

`CC1(C)CC(=O)c2c([nH]c(=S)c(C#N)c2-c2ccc(Br)cc2)C1`: the EC50 was > 200 µM and the IC50 was 43.7 µM. Consider `CCOC(=O)[C@H]1[C@@H]2CCCC[C@@]23C(Cl)(Cl)[C@@]32C[C@]1(C(=O)OCC)CCC(=O)O2`, for which the outcome was inactive. Consider `C=C(C)[C@@H]1CC[C@]2(C)CC[C@]3(C)[C@H](CC[C@@H]4[C@@]5(C)CC[C@H](O)C(C)(C)[C@@H]5CC[C@]43C)[C@@H]12`, for which the EC50 is > 100 µM and the IC50 came out at 51.3 µM. Turning to `S=P(N1CC1)(N1CC1)N1CC1`, the EC50 is > 1320 µM and the IC50 was 3.16 µM. For `CC(C)(C)OC(=O)N[C@H]1CC(=O)c2ccccc2N(CC(=O)O)C1=O`, the EC50 was > 251 µM and the half-maximal inhibitory concentration (IC50) is > 251 µM. For the compound `O=c1ccc2cc(O)ccc2o1`, the EC50 is > 200 µM and the IC50 was > 200 µM. For the compound `COC(=O)CNC(=O)CNC(=O)CSc1nnc(COc2ccc(Cl)cc2)n1-c1ccccc1`, the EC50 was > 200 µM and the IC50 is 30.9 µM. Turning to `O=C(NCCCN1CCN(CCCNC(=O)c2cc(-c3ccccc3)nc3ccccc23)CC1)c1cc(-c2ccccc2)nc2ccccc12`, the EC50 is > 20 µM and the IC50 was 2.4 µM. For `CCOC(=O)C(Cc1ccccc1[N+](=O)[O-])C(=O)OCC`, in that order: > 200 µM and 102 µM. On to `O=C(O)c1cccc(SS(=O)(=O)c2cccc(C(=O)O)c2)c1`, for which the EC50 was 27.5 µM and the IC50 stood at 162 µM.

For `O=C(Nc1ccc(F)cc1)C(=O)C(C1OC(=O)c2ccccc21)[N+](=O)[O-]` (configuration not stated), the EC50 is > 692 µM and the IC50 worked out at 355 µM. Regarding `CC1=CC(c2ccccc2)n2c(nc3cc4ccccc4cc32)N1` (configuration not stated), the EC50 was > 200 µM and the IC50 was > 200 µM. With `COC1=CC(=O)c2c(cc3c(c2O)-c2c(OC)cc4cc5c(c(O)c4c2OC(=O)CC(C)(O)C3)C(=O)CC(C)(O)C5)C1=O` (configuration not stated), the EC50 is > 100 µM and the IC50 came to 5.37 µM. For `O=c1c2c(sc3ccccc13)CCC2`, in that order: > 151 µM and > 151 µM. For `CC(C)(C)c1ccc(Oc2ccc3c(c2)-c2nc-3nc3[nH]c(nc4nc(nc5[nH]c(n2)c2ccc(Oc6ccc(C(C)(C)C)cc6C(C)(C)C)cc52)-c2cc(Oc5ccc(C(C)(C)C)cc5C(C)(C)C)ccc2-4)c2ccc(Oc4ccc(C(C)(C)C)cc4C(C)(C)C)cc32)c(C(C)(C)C)c1`, in that order: > 9.77 µM and > 9.77 µM.

Turning to `Cc1ccc(C)n1-n1c(-c2ccccc2)n[nH]c1=O`, the EC50 is > 200 µM and the IC50 turned out to be 89.1 µM. On the same counts, the results for `COC(=O)CN1C(=O)c2cccc3cc([N+](=O)[O-])cc(c23)C1=O` are > 200 µM and 21.9 µM. On the same counts, the results for `O=c1c2ccccc2n2c(-c3ccc(O)cc3)nnc2n1-c1ccccc1` are > 200 µM and > 100 µM. On the same counts, the results for `O=C1CCC2(c3ccc(F)cc3)Nc3ncncc3N12` (configuration not stated) are > 347 µM and > 347 µM.

`COc1ccc(C2c3cc4c(cc3OC(N3CCOCC3)C2C)OCO4)cc1OC` (configuration not stated): the EC50 is > 200 µM and the IC50 turned out to be 7.76 µM. For `N=C(N)SCc1ccc(Cl)cc1Cl` (tested in a mixture with another compound), in that order: > 100 µM and 60.3 µM. On the same counts, the results for `COc1cc(C(c2cc(OC)c(OC)c(OC)c2)N2C(=O)CCC2C(=O)O)cc(OC)c1OC` (configuration not stated) are > 200 µM and > 200 µM. As for `CC(=O)N/N=C1\CC(C)(C)C2CCC1C2` (configuration not stated), the result was inactive. Consider `O=C(CC(=O)N1N=C(n2ccc3ccccc32)CC1c1ccccc1)Nc1ccc(Cl)cc1` (configuration not stated), for which the EC50 was > 1.2 µM and the IC50 is > 1.2 µM.

With `CC(=O)c1ccc(NC(=S)NN)cc1`, the EC50 was > 174 µM, the result was inactive and the IC50 was determined as 148 µM. Turning to `CCN(CC)CCn1c2ccccc2c(=O)c2c(O)ccc(O)c21`, the result was inactive. Regarding `O=c1c2ccc(Cl)cc2nc2nc(-c3ccccc3)c3cc(Cl)ccc3n12`, the EC50 is > 200 µM and the IC50 is > 100 µM. On to `Oc1ccc(-c2c3ccccc3c(-c3ccc(O)cc3)c3ccccc23)cc1`, for which the EC50 is > 2.75 µM and the IC50 is > 2.75 µM. As to `O=C(OC/C=C1C=C(OC(=O)c2ccccc2)/C(=N/N(C(=O)c2ccccc2)c2ccccc2)O\1)c1ccccc1`, the EC50 is > 200 µM and the IC50 came to 11 µM. For `CCOC(=O)C1CCc2c1c(C#N)c1[nH]c3ccccc3n1c2=O` (configuration not stated), in that order: > 234 µM and > 234 µM. Consider `CC(=O)SC1CC(=O)C=C2CCC3C4CCC(=O)OC4(C)CCC3C21C` (configuration not stated), for which the EC50 was > 200 µM and the IC50 was > 200 µM. Regarding `Cc1ccc(S(=O)(=O)OC2COCOC2C2OCOC3COCOC32)cc1` (configuration not stated), the EC50 is > 200 µM and the IC50 is > 200 µM. Take `COc1ccc(NC(=O)C(=O)C2NC(=S)NC2=O)c(OC)c1` (configuration not stated): the EC50 was > 776 µM and the IC50 is > 776 µM. With `COc1ccc(N[C@H]([C@@H](c2ccccc2)S(=O)c2ccc(C)cc2)C(F)(F)F)cc1` (some centres not stated), the EC50 is > 200 µM and the IC50 came to 34.7 µM. For `O=S(=O)(Nc1ccccc1)c1ccc(-c2c3nc(c(-c4ccc(S(=O)(=O)Nc5ccccc5)cc4)c4ccc([nH]4)c(-c4ccc(S(=O)(=O)Nc5ccccc5)cc4)c4nc(c(-c5ccc(S(=O)(=O)Nc6ccccc6)cc5)c5ccc2[nH]5)C=C4)C=C3)cc1`, in that order: > 100 µM and > 100 µM. In the case of `COc1cc2c(cc1O)C1(C(=O)c3ccc4c(c3[C@H]1O)OCO4)N(C)CC2` (some centres not stated), the outcome was inactive. `CCOC(=O)c1c(C(CC)C(=O)OC(C)C)cc2n(c1=O)Cc1c-2nc2ccccc2c1Cl` (configuration not stated): the EC50 was > 10 µM and the IC50 is > 10 µM. `COc1cc([C@@H]2c3cc4c(cc3C(N)C3COC(=O)[C@@H]32)OCO4)cc(OC)c1O` (some centres not stated): the outcome was inactive. With `Oc1ccc(C2(c3ccc(O)cc3)CCCC2)cc1`, the EC50 is > 200 µM and the IC50 was 30.9 µM. Regarding `Cc1cccc(C)c1N1C(=O)C(=O)C(c2nc3ccccc3s2)/C(=N\N)C1=O` (configuration not stated), the result was inactive. On the same count and under the same terms, the same measure for `CCOC(=O)c1[nH]c(COC(C)=O)c2c1CCCCCCCCCC2`: “inactive”. In the case of `Cc1ccccc1NC(=S)N=Nc1c(O)[nH]c2ccccc12`, the EC50 is > 200 µM and the IC50 is > 200 µM.

Broadly, the EC50 is the concentration at which the effect is half-maximal. Usually IC50 stands for the midpoint of a concentration-inhibition curve. Higher therefore signals a need for much substance.
